Laboratory results published in US20250263733A1, “TARGETED GENE INTEGRATION IN PLANTS” (LIMAGRAIN EUROPE, priority 2021, published 2025).

Test system: Ubi7DL gene
Assay: NGS sequencing of transformed plantlets for mutations at the gRNA target site around the STOP codon of Ubi7DL
Design: species or system wheat var. Fielder
Conditions: 59 of 97 events; multiplex G1, G2, G3 guides with Cas9; all mutations generated with G3
From the text: The strategy for GT at Ubi7DL is outlined in FIG. 1 and is based on the method of in planta GT (Fauser et al. 2012). A Cas9 gRNA (G3 SEQ ID NO: 8) that efficiently makes a DNA double strand break (DSB) around the STOP codon of the Ubi7DL gene was first identified by Agrobacterium-mediated transformation into wheat var. Fielder with a binary plasmid containing a TaU6-tRNA multiplex guide (SEQ ID NO: 10) expressing 3 guides G1 (SEQ ID NO: 6), G2 (SEQ ID NO: 7) and G3 (SEQ ID NO: 8) under control of promoter TaU6 (SEQ ID NO: 9), together with ZmUbi (SEQ ID NO: 11)-Cas9 (SEQ ID NO: 13)-nos terminator (SEQ ID NO: 12) and pActin-Bar-nos cassettes. These 3 target sites are around the STOP codon of Ubi7DL. Fielder wheat cultivar was transformed with these Agrobacterium strains essentially as described by WO2000/063398.

“G3: Cas9 gRNA (SEQ ID NO: 8) making a double strand break around the STOP codon of Ubi7DL (guide CAGGAGCTTACTGGCCACCA; listed as DNA, chemistry not given here; listed as Triticum aestivum) [Line G3]” was tested, and the “independent transformation events with mutations at the target site” value was 61%.
